Consider two compounds from patent US20200131227A1, “POLYPEPTIDE WITH TUMOUR BINDING ACTIVITY” (RUPRECHT-KARLS-UNIVERSITÄT HEIDELBERG, priority 2017, published 2020).

The target in one data set is ITGαvβ6 (Homo sapiens, UniProt P06756+P18564). The data set can be described thus: Surface plasmon resonance assay (SPR), ITGαvβ6. In kind it is binding. The note with it: peptide immobilized, integrin as analyte, 1:1 Langmuir fit. The method, then: Assessment of the binding affinity was performed on a BiaCore X100 (GE Healthcare). To avoid denaturation of the heterodimer during amide activation ITGαvβ6 and ITGαvβ3, respectively, were used as analytes and SFITGv6 was immobilized at its N-terminus on a C1 sensor Chip (BR-1005-35, GE Healthcare) using a manual amine coupling protocol. Briefly, after activation of the sensor chip surface with a solution of EDC 0.4 M/NHS 0.1 M for 5 min a 100 μM peptide dissolved in HBS-EP running buffer (0.1 M HEPES, 30 mM EDTA, 1.5 M NaCl, 0.5% surfactant P20, pH 7.2) was immobilized with a contact time of 30 sec until a loading level of 18 response units (RU) was obtained. […] The SPR-sensogram data were evaluated with the BiaCore evaluation software. The dissociation constant (KD) was determined by a 1:1 Langmuir model fit of the SPR-sensograms.
Assessment of the binding affinity was performed on a BiaCore X100 (GE Healthcare). To avoid denaturation of the heterodimer during amide activation ITGαvβ6 and ITGαvβ3, respectively, were used as analytes and SFITGv6 was immobilized at its N-terminus on a C1 sensor Chip (BR-1005-35, GE Healthcare) using a manual amine coupling protocol. […] The SPR sensogram data were evaluated with the BiaCore evaluation software. The dissociation constant (KD) was determined by a 1:1 Langmuir model fit of the SPR sensograms.
Background: Surface plasmon resonance follows binding to a sensor surface in real time, without labels.

Data set [1] deals with brain metastases derived from breast cancer and NSCLC. The data set can be described thus: Histochemical peptide staining of brain metastases. Further details: species or system human. The method, then:
Staining with the biotinylated PEG(12)-SFITGv6 peptide was performed on acetone-fixed cryosections (5 μm) of tumor tissues after blocking of unspecific binding using the Avidin/Biotin Blocking Kit (SP-2001, Vector Laboratories). A stock solution of the lyophilized peptide was prepared by dilution in 5% aqueous DMSO. Slices were incubated overnight at 4° C. with 10^-5 M peptide concentration in antibody diluent (DAKO). Detection of bound peptide was carried out with the Vectastain Elite ABC Kit (PK-6100, Vector Laboratories) according to manufacturer's protocol. Peptide specificity was ensured by a scrambled (GRD) PEG(12)-SFITGv6 derivate, the somatostatin receptor ligand DOTATOC and negative controls (without peptide or primary antibody) Staining results were assessed by bright field microscopy (BX50) with the SC30 camera and the cell Sense software (all Olympus).

The next data set relates to HNO97 cells. The data set is described as follows: In vitro binding, kinetics, internalization and efflux on HNO97 cells. The class given is cell-based, human. The method, then:
For binding studies, 2.5×10^5 to 4×10^5 cells were seeded in 6-well plates and cultivated for 48 hours. Cells were incubated for 60 min with 1 mL serum-free medium containing the ^125I-labeled peptide (see above). For competition experiments, cells were simultaneously exposed to unlabeled (10^-4 M to 10^-10 M) and ^125I-labeled peptides. After three washing steps with PBS (pH 7.4) the cells were lysed with 0.5 mL of 0.3 M NaOH. Experiments concerning the internalization, kinetics and efflux were additionally performed with ^177Lu-DOTA-SFITGv6. To evaluate kinetics and efflux HNO97 cells were incubated for different time intervals (10 min to 480 min) and 60 min, respectively, with ^177Lu-DOTA-SFITGv6 and lysed as described. To continue with the efflux experiment radioactive medium was replaced by non-radioactive medium and cells were incubated again for 60 to 240 min before measuring radioactivity of the cell lysates and the medium. For internalization experiments the cells were exposed to ^177Lu-DOTA-SFITGv6 for different time intervals (10 to 240 min) at 37° C. and 4° C. After three washing steps with PBS the cells were incubated with 1 mL of glycine-HCl 50 mmol/L in PBS (pH 2.8) for 10 min at RT to remove the surface bound activity. Then, cells were washed with 3 mL of ice-cold PBS and lysed as described. Radioactivity was determined in a gamma counter and calculated as percentage of the applied dose per 1×10^6 cells. Experiments were performed three times, and three repetitions per independent experiment were acquired.
For the assessment of the peptide binding capacity in vitro, 2.5-4×10^5 cells were seeded into 6-well plates and cultivated for 48 h. ^125I-labeled peptide resuspended in 1 mL serum-free medium was added and incubated for either 10 min or 60 min with or without different concentrations of unlabeled peptide (10^−4-10^−11 M). Afterwards, cell monolayers were washed three times with 1 mL phosphate-buffered saline (pH 7.4) to remove unbound peptide and the cells were harvested with 1.4 mL lysis buffer (0.3 M NaOH). To evaluate kinetic properties the cells were exposed to ^177Lu-DOTA-labeled peptides for 10, 30, 60, 120, and 240 min, respectively, and lysed as described. For the efflux experiments the cells were incubated with ^177Lu-DOTA-labeled peptides for 60 min. Thereafter, radioactive medium was replaced by non-radioactive medium and cell monolayers were incubated for additional 60, 120, and 240 min and afterwards lysed as described earlier. The internalization was assessed after exposure of the cells to ^177Lu-DOTA-labeled peptides for 10, 30, 60, 120, and 240 min at 37° C. Unspecifically bound peptide was removed from the surface by incubation with 1 M glycine-HCl solution (pH 2.2) for 10 min. The monolayer cell was rinsed with PBS and cells were lysed as described before. Radioactivity was determined in a y-counter and calculated as percentage of the applied dose per 1×10^6 cells. Experiments were performed three times, and three repetitions per independent experiment were acquired.

Data set [2] in a line: Biodistribution, Capan-2 xenografts. The note with it: Balb/c nude, mouse, tumor (Capan-2 xenograft), iv, 1 MBq, total radioactivity; after 1 hour (highest). In kind it is in vivo, mice. The method, then: 6 to 8 week old Balb c/c nude mice (Charles River Lab.) were inoculated with 5*10^6 Capan-2 cells in 100 μl Opti-MEM medium. After 4 to 6 weeks the tumor has grown 10-15 mm in diameter. For small animal PET imaging 25 MBq of the ^68Ga-labeled peptide (2 nmol) was injected into the tail vein.
For biodistribution assays 1 MBq of ^177Lu-labeled peptide was injected into the tail vein of each mouse. After different time points each animal was sacrificed. Peripheral blood, spleen, liver, intestine, kidney, heart, lung, brain, muscle, and tumor were removed and weighted. Radioactivity was measured in a gamma counter and expressed as injected dose per gram (% ID/g).

For another data set, the system named is ovarian cancer. The data set is described as follows: Scintigraphy of ovarian cancer patients. The note with it: 1 day after 6 GBq and 7.4 GBq. The class given is in vivo, human. The method, then: PET/CT scans of tumor patients and body scintigraphy were performed as described in Example 1.

SMILES strings stand for the structures. Where a SMILES comes first, the peptide text is derived from it. Bridges are numbered along the chain shown (N, C = ends). The star is where a group is joined. DOTA = O=C(O)CN1CCN(CC(=O)O)CCN(CC(=O)*)CCN(CC(=O)O)CC1

The term Kd denotes the constant that tells how readily two partners part at equilibrium. A lower Kd goes with tighter binding. As for `CSCC[C@@H]1NC(=O)[C@H](CC(C)C)NC(=O)[C@H](CC(=O)O)NC(=O)CNC(=O)[C@H](CCCNC(=N)N)NC(=O)[C@H](Cc2ccccc2)NC(=O)[C@H]([C@@H](C)O)NC(=O)[C@@H](NC(=O)[C@H](CCCNC(=N)N)NC(=O)CN)CSSC[C@@H](C(=O)N[C@@H](Cc2ccc(O)cc2)C(=O)N2CCC[C@H]2C(=O)N[C@@H](CC(=O)O)C(=O)O)NC(=O)[C@H](CC(C)C)NC(=O)[C@H](CCC(N)=O)NC1=O` [SFITGv6, NH2-G-R-C1-T-F-R-G-D-L-M-Q-L-C1-Y-P-D-COOH] (H-GRCTFRGDLMQLCYPD-OH; disulfide 3-13), the Kd on ITGαvβ6 came out at 14.8 ± 26 nM. In addition, the entries for the “histochemical peptide staining result” value in data set [1] (breast cancer BM (NCH640k)) and in data set [1] (lung BM (NCH2407)) were “moderate but distinct tumor cell staining” and “very strong tumor-specific staining pattern”, respectively.
Broadly, the tissue uptake is the share of the injected amount in each gram of the tissue. For `CC(C)C[C@@H]1NC(=O)[C@H](CC(=O)O)NC(=O)CNC(=O)[C@H](CCCNC(=N)N)NC(=O)CNC(=O)[C@H]([C@@H](C)O)NC(=O)[C@@H](NC(=O)[C@H](CCCNC(=N)N)NC(=O)CNC(=O)CN2CCN(CC(=O)O)CCN(CC(=O)O)CCN(CC(=O)O)CC2)CSSC[C@@H](C(=O)N[C@@H](Cc2ccc(O)cc2)C(=O)N2CCC[C@H]2C(=O)N[C@@H](CC(=O)O)C(N)=O)NC(=O)[C@H](CC(C)C)NC(=O)[C@H](CCCNC(=N)N)NC(=O)CNC1=O` [^177Lu-DOTA-SFLAP3, metal not drawn] ({DOTA}-GRCTGRGDLGRLCYPD-NH2; disulfide 3-13; N-terminus and C-terminus assumed), the internalization with HNO97 cells (% of the total bound peptide, Example 2, within 60 min) was found to be 60%. Moreover, in the data set with HNO97 cells (Example 2, 10 min to 480 min (FIG. 16)), the “maximum binding capacity of ^177Lu-DOTA-labeled peptide (kinetics)” value stood at 18.5%. In addition, in the data set with HNO97 cells (Example 2, FIG. 17A, B), the “total bound ^177Lu-DOTA-labeled peptide (internalization experiment)” value stood at 11.14%. The tissue uptake at 1 h in data set [2] came to 4 %ID/g. The scintigraphic accumulation entry in the data set with ovarian cancer is “moderate to good accumulation in the metastases”.
